For assay [1], the target named is T1, recombinant human B1 receptors (Homo sapiens, UniProt P46663).
T1 construct: host or cells: CHO (CHO-B1)
T1 sequence (P46663 1-353): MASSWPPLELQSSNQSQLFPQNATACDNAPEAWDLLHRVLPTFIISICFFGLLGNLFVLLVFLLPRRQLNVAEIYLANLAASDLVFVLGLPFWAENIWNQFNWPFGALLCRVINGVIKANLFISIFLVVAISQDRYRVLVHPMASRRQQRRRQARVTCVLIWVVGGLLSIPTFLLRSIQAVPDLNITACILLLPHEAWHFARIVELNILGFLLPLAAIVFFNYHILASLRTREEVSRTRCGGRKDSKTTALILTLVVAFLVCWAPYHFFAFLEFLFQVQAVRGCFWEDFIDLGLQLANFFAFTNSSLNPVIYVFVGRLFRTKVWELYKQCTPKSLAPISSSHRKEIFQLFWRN
Description: Functional assay: antagonist potency by cytosolic calcium measurement (plate reader fluorimeter) in CHO-B1 cells, agonist LysDABK. Format: cell-based. The following applies: CHO-B1 cells, inhibition of LysDABK (EC80)-evoked [Ca2+]i elevation; read-out: B1 func. The method, then:
Assessment of Antagonist Potency at B1 Receptors In Vitro by Measurement of Cytosolic Calcium Ion Concentration with a Plate Reader Fluorimeter in Cells Expressing Recombinant Human B1 Receptors
Chinese hamster ovary (CHO) cells stably expressing recombinant human B1 (CHO-B1, Euroscreen) receptors were cultured in Dulbecco's Modified Eagle's Medium (DMEM) containing 10% Fetal Calf Serum (FCS), 100 U/ml penicillin, 0.1 mg/ml streptomycin, 0.25 μg/ml amphotericin B, 1% Minimum Essential Medium Eagle (MEM), non essential amino acid solution, 600 μg/ml G418. Cells were kept at 37° C. in a humidified incubator in an atmosphere of 5% CO2/95% air and were passaged 1:4 three times a week. Cells were plated at 1.5−2.5×10^4 cell/well on standard 96-well microplates, measurements of cytosolic calcium ion concentration ([Ca^2+]i) were carried out 1-2 days after cell plating.
Measurements of [Ca^2+]i were carried out on CHO-B1 cells stably expressing human B1 receptors, respectively. Cells were grown in standard 96-well microplates and before the measurement were loaded with a fluorescent Ca^2+-sensitive dye, fluo-4/AM (2 μM): after removing the culture medium the dye was added to the cells (dissolved in assay buffer: 145 mM NaCl, 5 mM KCl, 2 mM MgCl2, 2 mM CaCl2, 10 mM HEPES, 20 mM D-glucose, 2 mM probenecid, 100 μl/well) and cells were incubated at 37° C. in a humidified incubator in an atmosphere of 5% CO2/95% air for 40-120 min. To stop dye loading cells were washed twice with assay buffer. After washing, various concentrations of the test compounds (diluted in extracellular medium from a DMSO stock solution, final DMSO concentration was <0.1%) or buffer were added to each well depending on the experimental setup. After incubation at 37° C. for 20-25 min. baseline and agonist-evoked changes of [Ca^2+]; were measured column by column with a plate reader fluorimeter (Fluoroskan Ascent, Labsystems). Excitation and detection of emission was carried out from the bottom of the plate. Filters used for Fluo-4: excitation filter 485 nm, emission filter 538 nm. The whole measurement process was performed at 37° C. and was controlled by custom software. Inhibitory potency of the test compounds was assessed by measuring the reduction in the agonist-evoked [Ca^2+]i-elevation in the presence of different concentrations of the compounds. The agonist was LysDABK for CHO-B1 cells. Agonist was applied at an EC80 concentration; the EC80-values were derived from daily determined dose-response curves. Fluorescence data were expressed as ΔF/F (fluorescence change normalized to baseline). All treatments on a single plate were measured in multiple wells. Data from all wells with the same treatment were averaged and the average values were used for analysis. Inhibitory potency of a compound at a single concentration point was expressed as percent inhibition of the control agonist response. Sigmoidal concentration-inhibition curves were fitted to the data (derived from at least three independent experiments) and IC50-values were determined as the concentration that produces half of the maximal inhibition caused by the compound.

The target in assay [2] is T2, human recombinant bradykinin B1 receptor (Homo sapiens, UniProt P46663).
T2 construct: host or cells: CHO cells, clone hB1-A5
T2 sequence (P46663 1-353): T1 sequence (P46663 1-353)
Description: Human recombinant bradykinin B1 receptor competitive radioligand binding. The following applies: hB1 expressed in CHO cells, [3H]-[Des-Arg10] Kallidin radioligand; read-out: B1 binding. The method, then:
Assessment of Ligand Binding Affinity to B1 and B2 Receptors In Vitro by Competitive Radioligand Binding Assay
Binding assays were carried out on human recombinant bradykinin) receptors (expressed in CHO cells, hB1-A5) according to the Euroscreen Technical Data Sheet (Cat.No.:ES-091). 20 μg protein/tube was incubated with [3,4-prolyl-3,4-^3H(N)]-[Des-Arg^10] Kallidin as radioligand. Non specific binding was determined in the presence of 10 μM Lys-des-Arg^9-Bradykinin. The final incubation volume was 250 μl. Samples were incubated for 15 min. at 25° C. then were rapidly vacuum filtered through GF/B filters presoaked for at least 1 h in 0.5% PEI. Radioactivity was determined by liquid scintillation spectroscopy.
The ligand displacement by the compounds was determined using a minimum of seven concentrations in triplicate, and experiments were repeated at least two times. The specific radioligand binding is defined as the difference between total binding and the non-specific binding determined in the presence of an excess of unlabelled ligand. Results are expressed as a percent inhibition of specific binding obtained in the presence of RGH-478 or reference drugs. IC50 values (i.e. concentration of compound giving 50% inhibition of specific binding) were calculated from concentration-displacement curves by sigmoidal fitting using GraphPad Prism Software 4.0. Ki values (i.e. inhibition constants) were calculated using the Cheng-Prusoff equation. KD was determined from the Scatchard plot. (Editor-in-chief: Enna, S. J. and Williams, M. Current protocols in pharmacology vol. 1. John Wiley & sons Inc., 1998)

Consider `COc1cc(C(=O)NC2(C(=O)NCc3ccc(-n4c(-c5noc(C)n5)cc5ccccc54)cn3)CC2)on1` [Example 57, 3-Methoxy-isoxazole-5-carboxylic acid [1-({5-[2-(5-methyl-[1,2,4]oxadiazol-3-yl)-indol-1-yl]-pyridin-2-ylmethyl}-carbamoyl)-cyclopropyl]-amide], for which, in assay [1], the IC50 is 20 to 100 nM. For the same compound, in assay [2], the Ki was 20 to 100 nM.
For the compound `Cc1nc(-c2c(Cl)c3cc(Cl)ccc3n2-c2ccc(CNC(=O)C3(NC(=O)c4cc(C5CC5)on4)CC3)cc2)no1` [Example 75, 5-Cyclopropyl-isoxazole-3-carboxylic acid (1-{4-[3,5-dichloro-2-(5-methyl-[1,2,4]oxadiazol-3-yl)-indol-1-yl]-benzylcarbamoyl}-cyclopropyl)-amide], in assay [1], the IC50 is < 20 nM. Also, the Ki in assay [2] is < 20 nM.
In the case of `COc1cc(C(=O)NC2(C(=O)NCc3ccc(-n4c(-c5noc(C)n5)c(C#N)c5ccccc54)cc3)CC2)on1` [Example 21, 3-Methoxy-isoxazole-5-carboxylic acid (1-{4-[3-cyano-2-(5-methyl-[1,2,4]oxadiazol-3-yl)-indol-1-yl]-benzylcarbamoyl}-cyclopropyl)-amide], the IC50 in assay [1] was < 20 nM. In addition, the Ki in assay [2] is < 20 nM.
Turning to `Cc1nc(-c2cc3cc(F)ccc3n2-c2ccc(CNC(=O)C3(NC(=O)c4cncc(C(F)(F)F)c4)CC3)c(F)c2)no1` [Example 132, N-(1-{2-Fluoro-4-[5-fluoro-2-(5-methyl-[1,2,4]oxadiazol-3-yl)-indol-1-yl]-benzylcarbamoyl}-cyclopropyl)-5-trifluoromethyl-nicotinamide], the IC50 in assay [1] is < 20 nM. Further, the Ki in assay [2] is < 20 nM.
Consider `Cc1cnc(C(=O)NC2(C(=O)NCc3ccc(-n4c(-c5noc(C)n5)c(Cl)c5ccccc54)cc3F)CC2)cn1` [Example 106, 5-Methyl-pyrazine-2-carboxylic acid (1-{4-[3-chloro-2-(5-methyl-[1,2,4]oxadiazol-3-yl)-indol-1-yl]-2-fluoro-benzylcarbamoyl}-cyclopropyl)-amide], for which the IC50 in assay [1] was < 20 nM. Also, in assay [2], the Ki was < 20 nM.
With `CC(=O)NC(CO)C(=O)NC1(C(=O)NCc2ccc(-n3c(-c4noc(C)n4)c(Cl)c4ccccc43)cc2)CC1` (centres unmarked) [Example 151, 1-(2-Acetylamino-3-hydroxy-propionylamino)-cyclopropanecarboxylic acid 4-[3-chloro-2-(5-methyl-[1,2,4]oxadiazol-3-yl)-indol-1-yl]-benzylamide], in assay [1], the IC50 was in the range of 100 to 500 nM. The Ki in assay [2] was in the range of 100 to 500 nM.
Consider `Cc1nc(-c2c(Cl)c3ccccc3n2-c2ccc(CNC(=O)C3(NC(=O)C4CNC(=O)N4)CC3)cc2)no1` (centres unmarked) [Example 122, 2-Oxo-imidazolidine-4-carboxylic acid (1-{4-[3-chloro-2-(5-methyl-[1,2,4]oxadiazol-3-yl)-indol-1-yl]-benzylcarbamoyl}-cyclopropyl)-amide], for which, in assay [1], the IC50 was in the range of 20 to 100 nM. In addition, the Ki in assay [2] was 20 to 100 nM.
Regarding `Cn1nnc(-c2c(Cl)c3ccccc3n2-c2ccc(CNC(=O)C3(NC(=O)c4cccc(F)c4)CC3)cc2)n1` [Example 31, N-(1-{4-[3-chloro-2-(2-methyl-2H-tetrazol-5-yl)-indol-1-yl]-benzylcarbamoyl}-cyclopropyl)-3-fluoro-benzamide], the IC50 in assay [1] is < 20 nM. Further, the Ki in assay [2] was < 20 nM.
For `Cc1nc(-c2c(Cl)c3ccccc3n2-c2ccc(CNC(=O)C3(NC(=O)c4sc(C)nc4C)CC3)cc2)no1` [Example 150, 2,4-Dimethyl-thiazole-5-carboxylic acid (1-{4-[3-chloro-2-(5-methyl-[1,2,4]oxadiazol-3-yl)-indol-1-yl]-benzylcarbamoyl}-cyclopropyl)-amide], the IC50 in assay [1] was 20 to 100 nM. The Ki in assay [2] is < 20 nM.
Consider `Cc1noc(-c2cc3cc(F)ccc3n2-c2ccc(CNC(=O)C3(NC(=O)CC(F)(F)F)CC3)cc2)n1` [Example 101, 1-(3,3,3-Trifluoro-propionylamino)-cyclopropanecarboxylic acid 4-[5-fluoro-2-(3-methyl-[1,2,4]oxadiazol-5-yl)-indol-1-yl]-benzylamide], for which the IC50 in assay [1] was < 20 nM. In addition, the Ki in assay [2] is < 20 nM.

These data come from patent US20130217702A1 (Richter Gedeon Nyrt., priority 2010, published 2013).
